Source: ChEMBL document CHEMBL1159340, “Antibacterial diterpenes from Calceolaria pinifolia” (J Nat Prod, 2003)
Converted amounts (≈) assume the structure as drawn.

Legend:
Type in all cases: functional
[1] = tested on: Bacillus subtilis; test: Inhibition of DNA synthesis in Bacillus subtilis assessed as [3H]thymidine uptake at 0.25 ug/mL by LKB Betaplate scintillation counter relative to control; parameters: scale not given: the % may be the effect or the level left
[2] = tested on: Bacillus subtilis; test: Inhibition of DNA synthesis in Bacillus subtilis assessed as incorporation of [3H]thymidine at 0.25 ug/mL by LKB Betaplate scintillation counter relative to control; parameters: scale not given: the % may be the effect or the level left
[3] = tested on: Bacillus subtilis; test: Inhibition of RNA synthesis in Bacillus subtilis assessed as [3H]uridine uptake at 0.25 ug/mL by LKB Betaplate scintillation counter relative to control; parameters: scale not given: the % may be the effect or the level left
[4] = tested on: Bacillus subtilis; test: Inhibition of RNA synthesis in Bacillus subtilis assessed as incorporation of [3H]uridine at 0.25 ug/mL by LKB Betaplate scintillation counter relative to control; parameters: scale not given: the % may be the effect or the level left
[5] = tested on: Bacillus subtilis; test: Inhibition of protein synthesis in Bacillus subtilis assessed as [3H]amino acid uptake at 0.25 ug/mL by LKB Betaplate scintillation counter relative to control; parameters: scale not given: the % may be the effect or the level left
[6] = tested on: Bacillus subtilis; test: Inhibition of protein synthesis in Bacillus subtilis assessed as incorporation of [3H]amino acid at 0.25 ug/mL by LKB Betaplate scintillation counter relative to control; parameters: scale not given: the % may be the effect or the level left
[7] = tested on: Bacillus subtilis; test: Antimicrobial activity against Bacillus subtilis 327 after 18 hrs by microbroth dilution method
[8] = tested on: Staphylococcus aureus; test: Antimicrobial activity against methicillin-susceptible Staphylococcus aureus 375 after 18 hrs by microbroth dilution method
[9] = tested on: Staphylococcus aureus; test: Antimicrobial activity against methicillin-resistant Staphylococcus aureus 310 after 18 hrs by microbroth dilution method
[10] = tested on: Escherichia coli; test: Antimicrobial activity against Escherichia coli imp 389 after 18 hrs by microbroth dilution method

Row | Structure (SMILES) | Activity [1] | Activity [2] | Activity [3] | Activity [4] | Activity [5] | Activity [6] | MIC [7] | MIC [8] | MIC [9] | MIC [10]
1 | O=C(O)c1cn(C2CC2)c2cc(N3CCNCC3)c(F)cc2c1=O [CIPROFLOXACIN] | 73% | 61% | 100% | 94% | 104% | 94% | – | – | – | –
2 | CC(C)c1ccc2c(c1)CC[C@H]1[C@](C)(C(=O)O)CCC[C@]21C [DEHYDROABIETIC ACID] | – | – | – | – | – | – | 32 µg/mL (≈ 107 µM) | 16 µg/mL (≈ 53.3 µM) | 32 µg/mL (≈ 107 µM) | 128 µg/mL (≈ 426 µM)
3 | C=C[C@]1(C)CC=C2C(CC[C@@H]3[C@](C)(C(=O)O)CCC[C@@]23C)C1 (stereo not given in full) | – | – | – | – | – | – | 32 µg/mL (≈ 106 µM) | 16 µg/mL (≈ 52.9 µM) | 32 µg/mL (≈ 106 µM) | > 128 µg/mL
4 | C[C@H]1[C@H](C)CC[C@]2(C(=O)O)CC[C@]3(C)C(=CC[C@@H]4[C@@]5(C)CC[C@@H](O)C(C)(C)[C@@H]5CC[C@]43C)[C@H]12 | – | – | – | – | – | – | 64 µg/mL (≈ 140 µM) | > 128 µg/mL | – | > 128 µg/mL
5 | CC(C)c1ccc2c(c1)CC[C@H]1[C@](C)(CO)CCC[C@]21C [POMIFERIN A] | – | – | – | – | – | – | 8 µg/mL (≈ 27.9 µM) | 4 µg/mL (≈ 14 µM) | 4 µg/mL (≈ 14 µM) | > 128 µg/mL
6 | C=C[C@]1(C)CCC2=C(CC[C@@H]3[C@](C)(CO)CCC[C@@]23C)C1 | – | – | – | – | – | – | 32 µg/mL (≈ 111 µM) | 32 µg/mL (≈ 111 µM) | 64 µg/mL (≈ 222 µM) | > 128 µg/mL
